Data as given in US4162325A, “N-substituted lactams” (UCB, Societe Anonyme, priority 1976, dated 1979).
Where “and” joins values, the source holds several entries; their conditions need not be identical. Equal values may be shown once. Read-outs that look alike come from different tables or passages of the source.

Columns and labels:
rats = assay: active avoidance test, memory retention (paw pressure withdrawal) in rats; assay type: in vivo, rat; details: for minimal effective dose: sc, read-out: Active dose (minimum dose which reduces the stimulus to below 11 graduations)
Text: (A) The action on mnemic processes is first shown by the ability of the compounds to improve a type of memory retention in rats. The principle of the active avoidance test (see M. GREINDL and S. PREAT, Arch. Int. Pharmacodyn. Therap. 223,(1976),(1),168-171) developed in our laboratories and used for this purpose may be described as follows: the reaction of withdrawal of a rat's paw when subjected to an increasing and measured pressure is observed. The pressure at which the withdrawal reaction takes place is called the reaction threshold. This threshold is expressed by the number of graduations of the scale of the apparatus used (Analgesy meter UGO BASILE - Milano) and thus corresponds to the minimum pressure which brings about withdrawal when applied to the animal's paw. It is read directly from the scale of the apparatus used.
Inversely, animals treated with a substance having a positive effect on the mnemic processes (for example, piracetam) show a significant degree of retention: the stimulus at which the rats react by a reflex of avoidance is statistically lower than that of the control animals. A minimum of 20 rats are used per test (10 treated rats and 10 control rats) and the active dose is defined as the minimum dose which reduces the stimulus to below 11 graduations.
Subcutaneous administration of compounds of general formula (I), namely compounds A, G, H, I, J, K, L, N, O, P, Q, R, V, W, give, under these conditions, the effects indicated in Table I below.

mice = assay: protection against aggressions of the hypoxic type (lethality induced by oxydipentonium chloride) in mice; assay type: in vivo; details: 1 h, mouse, intraperitoneal, one hour before curarizer, read-out: Proportion of survivors, treated animals; for responders at 320 µM, 320 µmol/kg: 0.32 mM/kg (A 64, I 95, J 68, Piracetam 45 mg/kg), control 1/10, Piracetam 0/10; for responders at 10 µM, 10 µmol/kg: 0.01 mM/kg (B 2.6, G 2.6, H 2.4 mg/kg), control B 1/10, G 1/10, H 2/10; for responders at 100 µM, 100 µmol/kg: 0.1 mM/kg (F 24, G 25.5, H 24, I 30, J 21, K 23, L 23 mg/kg), control 1/10, F 0/10
Description: Protection against aggressions of the hypoxic type is shown by a reduction of the lethality induced by a curarizer, the duration of action of which is short, namely oxydipentonium chloride (Brevatonal). At the doses used, this curarizer brings about a respiratory depression which, in turn, brings about a hypoxi-hypercapnic syndrome. A compound capable of protecting the brain during this brief period of hypoxia ensures survival. The compounds are administered to groups of 10 mice one hour before the injection of the curarizer; in a parallel test, a control group of 10 mice are given physiological salt solution before the curarizer. This test has also been developed in our laboratories (see, for the principle of this test, S. LEVIS et al.; Arch. Int. Pharmacodyn. Therap, 93,(1953),1,46-54).
Intraperitoneal administration of compounds of general formula (I), namely, products A, B, F, G, H, I, J, K, L, gives the results shown in Table III: […]

rat = assay: reduction of the spinal fixation time in rats; assay type: in vivo; details: intraperitoneal, spinal section after 35 minutes
Text: (B) The action on mnemic processes is also shown by the reduction of the spinal fixation time, a test which has been described in literature (see C. GIURGEA & F. MOURAVIEFF-LESUISSE, Arch. Int. Pharmacodyn. 191/2,(1971),279) as an elementary memory model and which provides pharmacological reactivity in good correlation with clinical physiopathology. In the rat, after unilateral section of the cerebellum, there is a postural asymmetry of the hind paws. This asymmetry may persist, even after spinal section, if the animal has passed a sufficient period of time in this position. This time, which is called the spinal fixation time, is 45 minutes under the experimental conditions applied here.
On the other hand, if spinal section is performed before the expiry of this period of time, for example 35 minutes after the onset of the asymmetry, the latter disappears.
No animal treated with placebos retains the asymmetry under these conditions.
Inversely, any product which allows the rats to retain the asymmetry (thus effecting spinal fixation) when the spinal section is performed after 35 minutes, is considered to be active.
Intraperitoneal administration of compound A gives rise to the effects described in Table II. By "number of animals" is to be understood the number of animals which responded positively to the test, in relation to the number of animals tested at the indicated dose: […]

toxicity, LD50 in rat = details: in vivo
Text: The tested compounds have a remarkably low toxicity. Table V gives the toxicities, after intravenous administration, of some of the compounds of the present invention: […]

[1] = tested on: papillary muscle isolated from the rabbit heart; assay: cardiac activity on isolated papillary muscle of rabbit heart; details: for activation at 100 µg/mL / activation at 10 µg/mL: Oryctolagus cuniculus, read-out: percentage increase of the tension measured
Text: This has been shown by the method employing the papillary muscle isolated from the rabbit heart, according to the method of H. G. Schoepke and F. E. Shiddeman, J. Pharmacol. Exptl. Therap. 133,(1961), 171.
The reactivity of various compounds of general formula (I) after each experiment is checked against theophylline. Table IV gives some of the results observed, expressed as a percentage increase of the tension measured.

## NC(=O)CNC(=O)CN1CCCC1=O [A, 2-(2-Oxo-1-pyrrolidineacetamido)-acetamide]
rats; Rattus norvegicus, 24 h
  minimal effective dose: 0.4 mg/kg and 2 µmol/kg
rats; rat, subcutaneous
  activity compared with piracetam in the active avoidance test: superior to that of piracetam
mice
  responders at 320 µM, 320 µmol/kg: 70%
rat; 6.4 mg/kg (0.032 mM/kg)
  Number of animals which responded positively / number tested: 3/7
rat; 20.0 mg/kg (0.1 mM/kg)
  Number of animals which responded positively / number tested: 4/5
toxicity, LD50 in rat; intravenous
  LD50: > 5000 µmol/kg and > 1000 mg/kg

## CCCCNC(=O)CNC(=O)CN1CCCC1=O [Compound B, N-n-Butyl-2-(2-oxo-1-pyrrolidineacetamido)-acetamide]
mice
  responders at 10 µM, 10 µmol/kg: 60%
mice; ip, 0.032 mM/kg (B 8.2 mg/kg), control 1/10
  responders at 32 µM, 8.2 mg/kg: 80%
toxicity, LD50 in rat; intravenous
  LD50: > 4000 µmol/kg and > 1020 mg/kg

## CN(CC(=O)Nc1ccccc1)C(=O)CN1CCCC1=O [Compound E, 2-(N-Methyl-2-oxo-1-pyrrolidineacetamido)-N-phenylacetamide]
[1]
  activation at 100 µg/mL: 22%

## CC(C)NC(=O)CNC(=O)CN1CCCC1=O [Compound F, N-isopropyl-2-(2-oxo-1-pyrrolidineacetamido)-acetamide]
mice
  responders at 100 µM, 100 µmol/kg: 40%
toxicity, LD50 in rat; intravenous
  LD50: > 3000 µmol/kg and > 723 mg/kg

## CCC(C(=O)NCC(N)=O)N1C(=O)CCC1(C)C (stereo not drawn) [Compound G, 2-(alpha-ethyl-5,5-dimethyl-2-oxo-1-pyrrolidineacetamido)-acetamide]
rats; Rattus norvegicus, 24 h
  minimal effective dose: 0.51 mg/kg and 2 µmol/kg
rats; rat, subcutaneous
  activity compared with piracetam in the active avoidance test: superior to that of piracetam
mice
  responders at 10 µM, 10 µmol/kg: 40%
  responders at 100 µM, 100 µmol/kg: 60%
toxicity, LD50 in rat; intravenous
  LD50: > 2800 µmol/kg and > 714 mg/kg

## CC(C(=O)NCC(N)=O)N1C(=O)CCC1(C)C (stereo not drawn) [Compound H, 2-(alpha,5,5-trimethyl-2-oxo-1-pyrrolidineacetamido)-acetamide]
[1]
  activation at 10 µg/mL: 10%
[1]; same test (isolated papillary muscle, rabbit heart)
  action against anoxia: protective action against anoxia
rats; Rattus norvegicus, 24 h
  minimal effective dose: 0.0024 mg/kg and 0.01 µmol/kg
rats; rat, subcutaneous
  activity compared with piracetam in the active avoidance test: superior to that of piracetam
mice
  responders at 10 µM, 10 µmol/kg: 60%
  responders at 100 µM, 100 µmol/kg: 100%
toxicity, LD50 in rat; intravenous
  LD50: > 3100 µmol/kg and > 747 mg/kg

## CCCNC(=O)CNC(=O)C(CC)N1C(=O)CCC1(C)C (stereo not drawn) [Compound I, 2-(alpha-ethyl-5,5-dimethyl-2-oxo-1-pyrrolidineacetamido)-N-propylacetamide]
rats; Rattus norvegicus, 24 h
  minimal effective dose: 5.94 mg/kg and 20 µmol/kg
rats; rat, subcutaneous
  activity compared with piracetam in the active avoidance test: superior to that of piracetam
mice
  responders at 100 µM, 100 µmol/kg: 50%
  responders at 320 µM, 320 µmol/kg: 80%
toxicity, LD50 in rat; ip, intraperitoneal
  LD50: > 2500 µmol/kg and > 743 mg/kg

## CC(C(=O)NCC(N)=O)N1CCCC1=O (stereo not drawn) [Compound J, 2-(alpha-methyl-2-oxo-1-pyrrolidineacetamido)-acetamide]
rats; Rattus norvegicus, 24 h
  minimal effective dose: 0.21 mg/kg and 1 µmol/kg
rats; rat, subcutaneous
  activity compared with piracetam in the active avoidance test: superior to that of piracetam
mice
  responders at 100 µM, 100 µmol/kg: 60%
  responders at 320 µM, 320 µmol/kg: 100%
toxicity, LD50 in rat; intravenous
  LD50: > 2600 µmol/kg and > 554 mg/kg

## CCC(C(=O)NCC(N)=O)N1CCCC1=O (stereo not drawn) [Compound K, 2-(alpha-ethyl-2-oxo-1-pyrrolidineacetamido)-acetamide]
[1]
  activation at 100 µg/mL: 44%
rats; Rattus norvegicus, 24 h
  minimal effective dose: 4.54 mg/kg and 20 µmol/kg
rats; rat, subcutaneous
  activity compared with piracetam in the active avoidance test: superior to that of piracetam
mice
  responders at 100 µM, 100 µmol/kg: 70%
toxicity, LD50 in rat; intravenous
  LD50: > 2500 µmol/kg and > 568 mg/kg

## NC(=O)CNC(=O)C1(N2CCCC2=O)CC1 [Compound L, 2-[1-(2-oxo-pyrrolidino)-cyclopropanecarboxamido]-acetamide]
rats; Rattus norvegicus, 24 h
  minimal effective dose: 0.23 mg/kg and 1 µmol/kg
rats; rat, subcutaneous
  activity compared with piracetam in the active avoidance test: superior to that of piracetam
mice
  responders at 100 µM, 100 µmol/kg: 80%

## CN(C)C(=O)CNC(=O)CN1CCCC1=O [Compound M, N,N-ddimethyl-2-(2-oxo-1-pyrrolidineacetamido)-acetamide]
[1]
  activation at 10 µg/mL: 10%

## CN(CC(N)=O)C(=O)CN1CCCC1=O [Compound N, 2-(N-methyl-2-oxo-1-pyrrolidineacetamido)-acetamide]
rats; Rattus norvegicus, 24 h
  minimal effective dose: 2.13 mg/kg and 10 µmol/kg
rats; rat, subcutaneous
  activity compared with piracetam in the active avoidance test: superior to that of piracetam

## CNC(=O)CN(C)C(=O)CN1CCCC1=O [Compound O, N-methyl-2-(N-methyl-2-oxo-1-pyrrolidineacetamido)-acetamide]
rats; Rattus norvegicus, 24 h
  minimal effective dose: 2.27 mg/kg and 10 µmol/kg
rats; rat, subcutaneous
  activity compared with piracetam in the active avoidance test: superior to that of piracetam

## CN(C)C(=O)CN(C)C(=O)CN1CCCC1=O [Compound P, N,N-dimethyl-2-(N-methyl-2-oxo-1-pyrrolidineacetamido)-acetamide]
rats; Rattus norvegicus, 24 h
  minimal effective dose: 2.41 mg/kg and 10 µmol/kg
rats; rat, subcutaneous
  activity compared with piracetam in the active avoidance test: superior to that of piracetam

## CC(NC(=O)CN1CCCC1=O)C(N)=O (centres unmarked) [Compound Q, 2-methyl-2-(2-oxo-1-pyrrolidineacetamido)-acetamide]
rats; Rattus norvegicus, 24 h
  minimal effective dose: 2.13 mg/kg and 10 µmol/kg
rats; rat, subcutaneous
  activity compared with piracetam in the active avoidance test: superior to that of piracetam

## NC(=O)C(NC(=O)CN1CCCC1=O)c1ccccc1 (centres unmarked) [Compound R, 2-(2-oxo-1-pyrrolidineacetamido)-2-phenylacetamide]
rats; Rattus norvegicus, 24 h
  minimal effective dose: 2.75 mg/kg and 10 µmol/kg
rats; rat, subcutaneous
  activity compared with piracetam in the active avoidance test: superior to that of piracetam

## NC(=O)CNC(=O)CN1CCCCCC1=O [Compound V, 2-(hexahydro-2-oxo-1H-azepine-1-acetamido)-acetamide]
rats; rat, subcutaneous
  activity compared with piracetam in the active avoidance test: superior to that of piracetam
rats; rat, subcutaneous, tested 24 hours later
  minimal effective dose: 2.27 mg/kg and 10 µmol/kg

## CCCCC(C(=O)NCC(N)=O)N1CCCC1=O (stereo not drawn) [Compound W, 2-(alpha-n-butyl-2-oxo-1-pyrrolidineacetamido)-acetamide]
rats; Rattus norvegicus, 24 h
  minimal effective dose: 2.55 mg/kg and 10 µmol/kg
rats; rat, subcutaneous
  activity compared with piracetam in the active avoidance test: superior to that of piracetam

## CCCCC1CCN(CC(=O)NCC(N)=O)C1=O (centres unmarked) [Compound X, 2-(3-n-butyl-2-oxo-1-pyrrolidineacetamido)-acetamide]
[1]
  activation at 100 µg/mL: 25%

## Cn1c(=O)c2[nH]cnc2n(C)c1=O [Theophylline, reference compound]
[1]; 100 μg/ml
  activation at 100 µg/mL: 38%
